Reference: ChEMBL document CHEMBL5465560, “Selectivity Literature for EUbOPEN Chemogenomic Library” (2024)

Tests used:
[1] = biological target: T1, Myosin-IIIb (Homo sapiens) (UniProt Q8WXR4); conditions: at 10 µM
T1 sequence (whole entry): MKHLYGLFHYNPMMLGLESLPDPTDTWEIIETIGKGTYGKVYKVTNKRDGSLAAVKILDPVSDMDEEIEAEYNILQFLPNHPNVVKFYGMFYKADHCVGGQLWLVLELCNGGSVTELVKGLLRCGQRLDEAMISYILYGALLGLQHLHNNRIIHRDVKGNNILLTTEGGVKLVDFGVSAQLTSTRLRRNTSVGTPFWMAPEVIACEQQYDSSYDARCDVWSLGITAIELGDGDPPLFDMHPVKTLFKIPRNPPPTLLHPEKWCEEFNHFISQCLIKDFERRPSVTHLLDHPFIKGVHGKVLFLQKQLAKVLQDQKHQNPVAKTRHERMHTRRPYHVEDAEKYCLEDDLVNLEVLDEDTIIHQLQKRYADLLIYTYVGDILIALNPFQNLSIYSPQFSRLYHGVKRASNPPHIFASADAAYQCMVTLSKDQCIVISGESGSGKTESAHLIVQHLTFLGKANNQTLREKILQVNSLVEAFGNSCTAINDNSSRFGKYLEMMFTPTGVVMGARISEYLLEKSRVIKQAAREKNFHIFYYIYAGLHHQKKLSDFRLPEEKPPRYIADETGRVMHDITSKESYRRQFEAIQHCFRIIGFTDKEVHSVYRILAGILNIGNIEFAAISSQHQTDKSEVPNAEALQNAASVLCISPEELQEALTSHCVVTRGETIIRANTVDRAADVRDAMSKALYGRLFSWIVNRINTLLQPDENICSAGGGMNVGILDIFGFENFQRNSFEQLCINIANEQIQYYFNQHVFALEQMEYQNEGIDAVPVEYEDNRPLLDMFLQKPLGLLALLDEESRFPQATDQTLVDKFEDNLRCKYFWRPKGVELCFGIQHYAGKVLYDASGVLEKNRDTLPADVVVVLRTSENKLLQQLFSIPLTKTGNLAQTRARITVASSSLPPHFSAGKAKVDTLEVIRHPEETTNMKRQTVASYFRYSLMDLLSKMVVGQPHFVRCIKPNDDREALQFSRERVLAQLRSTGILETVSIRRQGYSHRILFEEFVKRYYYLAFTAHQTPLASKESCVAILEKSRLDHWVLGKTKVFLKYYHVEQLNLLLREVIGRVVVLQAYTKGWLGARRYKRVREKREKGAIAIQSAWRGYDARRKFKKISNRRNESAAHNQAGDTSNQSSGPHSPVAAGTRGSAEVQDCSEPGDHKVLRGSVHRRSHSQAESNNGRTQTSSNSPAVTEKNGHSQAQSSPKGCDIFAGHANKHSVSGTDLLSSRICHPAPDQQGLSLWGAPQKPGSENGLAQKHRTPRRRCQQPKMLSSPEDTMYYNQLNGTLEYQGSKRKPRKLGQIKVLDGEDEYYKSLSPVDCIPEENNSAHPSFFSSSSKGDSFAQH

[2] = biological target: T2, Bone morphogenetic protein receptor type-2 (Homo sapiens) (UniProt Q13873); assay: Selectivity interaction (KinomeScan (DiscoverX)) EUB0001619a BMPR2; conditions: at 1 µM
T2 sequence (whole entry): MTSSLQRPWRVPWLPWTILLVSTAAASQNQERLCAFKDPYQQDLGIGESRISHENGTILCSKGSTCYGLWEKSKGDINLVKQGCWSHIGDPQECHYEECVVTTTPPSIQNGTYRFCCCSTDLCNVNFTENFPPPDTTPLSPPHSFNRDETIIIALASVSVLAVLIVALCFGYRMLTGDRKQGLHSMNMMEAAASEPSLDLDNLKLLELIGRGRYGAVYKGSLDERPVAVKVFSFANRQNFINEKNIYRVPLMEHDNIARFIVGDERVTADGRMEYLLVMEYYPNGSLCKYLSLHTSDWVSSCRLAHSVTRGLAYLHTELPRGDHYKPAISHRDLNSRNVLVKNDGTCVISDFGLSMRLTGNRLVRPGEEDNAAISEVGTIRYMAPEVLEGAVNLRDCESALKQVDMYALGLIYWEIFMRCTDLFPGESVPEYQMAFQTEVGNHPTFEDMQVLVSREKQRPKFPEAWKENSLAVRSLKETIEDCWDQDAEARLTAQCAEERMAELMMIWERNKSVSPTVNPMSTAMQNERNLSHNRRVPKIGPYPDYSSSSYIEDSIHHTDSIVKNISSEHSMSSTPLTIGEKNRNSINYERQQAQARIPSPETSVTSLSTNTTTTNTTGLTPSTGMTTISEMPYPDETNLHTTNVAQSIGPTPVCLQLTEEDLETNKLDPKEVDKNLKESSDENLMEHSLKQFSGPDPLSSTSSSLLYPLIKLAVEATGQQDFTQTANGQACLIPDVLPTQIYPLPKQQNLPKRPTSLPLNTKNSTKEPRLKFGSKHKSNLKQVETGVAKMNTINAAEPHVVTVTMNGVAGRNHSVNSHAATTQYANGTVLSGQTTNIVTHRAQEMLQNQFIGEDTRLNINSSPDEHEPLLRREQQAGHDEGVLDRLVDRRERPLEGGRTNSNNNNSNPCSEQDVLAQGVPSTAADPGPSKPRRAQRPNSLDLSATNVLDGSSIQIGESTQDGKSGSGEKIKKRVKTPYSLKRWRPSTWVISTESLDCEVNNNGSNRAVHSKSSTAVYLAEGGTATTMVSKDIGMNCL

Structure (SMILES) | % of control [1] [%] | % of control [2] [%]
Cc1cc([C@@H](C)Nc2ccccc2C(=O)O)c2nc(N3CCOCC3)cc(=O)n2c1 [AZD-6482] | 93 | 
N#Cc1cccc(-c2c[nH]c3ncnc(N4CCOCC4)c23)c1 |  | 80
